ChEMBL document CHEMBL5096161, “Medulloblastoma drugs in development: Current leads, trials and drawbacks” (Eur J Med Chem, 2021)
Values after ≈ are worked out from the molar mass of the structure shown. Blank lines part the entries; values can stand above or below the compound they belong to.

Columns and labels:
[1] = Anticancer activity against human UW228 cells assessed as reduction in cell viability incubated for 72 hrs by CCK assay; format: functional, cell-based; details: UW228, 72 h
[2] = Anticancer activity against human UW426 cells assessed as reduction in cell viability incubated for 72 hrs by CCK assay; format: functional, cell-based; details: UW426, 72 h
[3] = Anticancer activity against human MED-MEB-8A cells assessed as reduction in cell viability incubated for 72 hrs by CCK assay; format: functional, cell-based
[4] = Prodrug conversion in ICR mouse brain assessed as Cmax of PF403 metabolite at 10 mg/kg, po and measured after 5 mins by LC-MS/MS analysis; format: ADME, organism-based; parameters: dose 10 mg/kg, time 5 min, route po; details: in vivo
Protein smoothened [5] = target: T1, Protein smoothened (Homo sapiens, UniProt Q99835, D473H); test: Inhibition of Smo D473H mutant (unknown origin) expressed in mouse NIH3T3 cells cotransfected with Gli luciferase reporter gene assessed as Gli luciferase activity incubated for 48 hrs by Bright-Glo reagent based luciferase assay; format: cell-based
T1 sequence (Q99835 28-787 D473H limits assumed): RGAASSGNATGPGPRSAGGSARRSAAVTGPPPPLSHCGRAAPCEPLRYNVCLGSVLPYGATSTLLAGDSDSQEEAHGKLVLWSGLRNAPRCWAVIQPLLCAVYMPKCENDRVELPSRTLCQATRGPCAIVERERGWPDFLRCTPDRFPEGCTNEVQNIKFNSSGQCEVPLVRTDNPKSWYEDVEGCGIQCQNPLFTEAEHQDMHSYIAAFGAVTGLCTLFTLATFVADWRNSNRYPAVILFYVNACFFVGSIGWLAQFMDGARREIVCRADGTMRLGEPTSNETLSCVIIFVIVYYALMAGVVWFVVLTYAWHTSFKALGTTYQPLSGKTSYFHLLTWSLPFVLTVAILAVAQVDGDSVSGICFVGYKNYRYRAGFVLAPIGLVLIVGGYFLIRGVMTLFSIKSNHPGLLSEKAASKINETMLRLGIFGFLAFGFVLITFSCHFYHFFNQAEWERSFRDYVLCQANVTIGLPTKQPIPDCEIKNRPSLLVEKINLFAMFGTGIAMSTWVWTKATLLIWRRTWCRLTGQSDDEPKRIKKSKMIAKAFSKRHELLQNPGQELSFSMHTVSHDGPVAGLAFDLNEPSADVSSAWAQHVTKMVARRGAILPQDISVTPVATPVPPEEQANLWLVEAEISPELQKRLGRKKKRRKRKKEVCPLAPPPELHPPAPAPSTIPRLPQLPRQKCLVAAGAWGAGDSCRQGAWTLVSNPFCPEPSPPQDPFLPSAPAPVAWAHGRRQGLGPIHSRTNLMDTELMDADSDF

[6] = Inhibition of hedgehog signalling in mouse NIH3T3 cells cotransfected with Gli luciferase reporter gene assessed as Gli luciferase activity incubated for 48 hrs by Bright-Glo reagent based luciferase assay; format: cell-based; details: NIH3T3, 48 h
[7] = Inhibition of hedgehog signalling in mouse Shh Light II cells co-transfected with Gli firefly luciferase assessed as inhibition of Gli luciferase expression measured after 30 hrs by luciferase reporter assay; format: cell-based
[8] = Inhibition of Wnt/beta-catenin transactivation signalling in Wnt3a stimulated human HEK 293 STF cells harbouring TCF/LEF1 luciferase reporter gene assessed as reduction in luciferase activity by TOPFlash luciferase reporter assay; format: cell-based
[9] = target: Casein kinase I isoform alpha (Homo sapiens, UniProt P48729); test: Binding affinity to CK1alpha (unknown origin) using casein as substrate by fluorescence based analysis
Sequence of Casein kinase I isoform alpha (P48729 whole entry, canonical isoform): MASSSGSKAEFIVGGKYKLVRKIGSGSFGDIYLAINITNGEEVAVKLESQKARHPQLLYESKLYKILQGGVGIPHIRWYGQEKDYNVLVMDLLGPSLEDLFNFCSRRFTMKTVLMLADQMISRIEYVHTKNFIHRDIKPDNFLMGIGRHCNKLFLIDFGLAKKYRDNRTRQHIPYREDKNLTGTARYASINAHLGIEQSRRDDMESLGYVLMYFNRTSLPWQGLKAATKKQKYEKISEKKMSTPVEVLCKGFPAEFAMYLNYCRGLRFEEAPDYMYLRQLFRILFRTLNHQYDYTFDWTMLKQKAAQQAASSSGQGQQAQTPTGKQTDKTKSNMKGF

[10] = Inhibition of hedgehog signalling in mouse Shh Light II cells assessed as luciferase activity; format: cell-based
Protein smoothened [11] = target: T1, Protein smoothened; test: Antagonist activity at resistant Smo D473H mutant (unknown origin) expressed in mouse C3H 10T1/2 cells cotransfected with Gli reporter gene assessed as Gli luciferase activity incubated for 24 hrs by dual luciferase assay; format: functional, cell-based
[12] = Ratio of AUC (0 to infinity) in brain to plasma of C57BL mouse at 20 mg/kg, iv by HPLC/MS/MS method; format: ADME, organism-based; details: brain and plasma, read-out: Ratio AUC
Daoy [13] = test: Antiproliferative activity against human Daoy cells assessed as inhibition of cell growth incubated for 72 hrs by Alamar blue dye based fluorescence spectrophotometric assay; format: functional
[14] = Antiproliferative activity against human pateint derived Medulloblastoma cells assessed as inhibition of cell growth incubated for 72 hrs by Alamar blue dye based fluorescence spectrophotometric assay; format: functional
[15] = Inhibition of hedgehog signalling in mouse NIH3T3 cells cotransfected with Gli/RE luciferase reporter gene assessed as Gli luciferase activity preincubated for 15 to 30 mins followed by ShhN stimulation and after 28 hrs by Steady-Glo reagent based luciferase assay
[16] = Inhibition of Hedgehog signaling in mouse NIH3T3 cells expressing GRE-Luc reporter gene assessed luciferase activity incubated for 48 hrs in presence of SAG by Bright-Glo luciferase assay; format: cell-based
Daoy [17] = test: Antiproliferative activity against human Daoy cells assessed as reduction in cell viability by MTT assay; format: functional, cell-based
Protein smoothened [18] = target: T2, Protein smoothened (Homo sapiens, UniProt Q99835); test: Binding affinity to human SMO (181 to 787 residues) expressed in human HEK293 cells assessed as radioactivity incubated for 2 hrs in presence of H3-labeled smo antagonist by ligand-displacement assay; format: cell-based
T2 sequence (Q99835 whole entry, the tested form may be a part): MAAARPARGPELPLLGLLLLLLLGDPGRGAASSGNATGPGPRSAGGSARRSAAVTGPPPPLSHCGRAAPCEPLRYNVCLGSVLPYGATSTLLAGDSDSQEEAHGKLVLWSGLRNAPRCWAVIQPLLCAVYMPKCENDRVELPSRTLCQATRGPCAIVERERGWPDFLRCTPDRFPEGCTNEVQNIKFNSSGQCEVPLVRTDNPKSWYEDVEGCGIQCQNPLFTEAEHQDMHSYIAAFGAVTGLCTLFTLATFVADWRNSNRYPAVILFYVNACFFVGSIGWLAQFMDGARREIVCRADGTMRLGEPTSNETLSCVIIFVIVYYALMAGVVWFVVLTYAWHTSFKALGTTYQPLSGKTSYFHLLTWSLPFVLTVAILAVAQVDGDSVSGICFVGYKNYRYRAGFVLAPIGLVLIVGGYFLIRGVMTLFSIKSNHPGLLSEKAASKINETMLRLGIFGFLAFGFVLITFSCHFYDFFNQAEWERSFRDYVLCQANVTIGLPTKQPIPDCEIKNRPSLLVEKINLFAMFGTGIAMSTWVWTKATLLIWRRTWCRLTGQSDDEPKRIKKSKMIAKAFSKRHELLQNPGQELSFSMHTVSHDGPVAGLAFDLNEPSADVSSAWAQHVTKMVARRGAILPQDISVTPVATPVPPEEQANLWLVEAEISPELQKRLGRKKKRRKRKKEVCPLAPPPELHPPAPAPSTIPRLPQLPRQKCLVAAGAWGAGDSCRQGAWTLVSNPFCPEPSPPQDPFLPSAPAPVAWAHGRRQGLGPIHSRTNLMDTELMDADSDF

[19] = Inhibition of Shh-induced hedgehog signalling pathway in mouse MEF cells expressing Gli-Luc reporter gene assessed as reduction in Gli1 transcription activity incubated for 48 hrs in presence of recombinant mouse shh stimulation by Bright-Glo luciferase Assay
Daoy [20] = test: Antiproliferative activity against human Daoy cells assessed as inhibition of cell proliferation measured after 4 days by WST-1 assay; format: functional, cell-based; details: 96 h
[21] = Antiproliferative activity against human D556 Med cells assessed as inhibition of cell proliferation measured after 4 days by WST-1 assay; format: functional, cell-based; details: 96 h
Daoy [22] = test: Antitumor activity against human Daoy cells assessed as inhibition of cell proliferation; format: functional, cell-based
D283 Med [23] = test: Antitumor activity against human D283 Med cells assessed as inhibition of cell proliferation; format: functional, cell-based
[24] = Half life in CD-1 mouse plasma at 10 mg/kg, po administered as single dose; format: ADME, organism-based
Protein smoothened [25] = target: T2, Protein smoothened; test: Inhibition of endogenous human Smo overexpressed in mouse C3H 10T1/2 cells cotransfected with Gli reporter gene assessed as Gli luciferase activity by dual luciferase assay; format: functional, cell-based
Protein smoothened [26] = target: Protein smoothened (Mus musculus, UniProt P56726); test: Inhibition of endogenous mouse Smo overexpressed in mouse C3H 10T1/2 cells cotransfected with Gli reporter gene assessed as Gli luciferase activity by dual luciferase assay; format: functional, cell-based
Sequence of Protein smoothened (Mus musculus, UniProt P56726) (P56726 whole entry): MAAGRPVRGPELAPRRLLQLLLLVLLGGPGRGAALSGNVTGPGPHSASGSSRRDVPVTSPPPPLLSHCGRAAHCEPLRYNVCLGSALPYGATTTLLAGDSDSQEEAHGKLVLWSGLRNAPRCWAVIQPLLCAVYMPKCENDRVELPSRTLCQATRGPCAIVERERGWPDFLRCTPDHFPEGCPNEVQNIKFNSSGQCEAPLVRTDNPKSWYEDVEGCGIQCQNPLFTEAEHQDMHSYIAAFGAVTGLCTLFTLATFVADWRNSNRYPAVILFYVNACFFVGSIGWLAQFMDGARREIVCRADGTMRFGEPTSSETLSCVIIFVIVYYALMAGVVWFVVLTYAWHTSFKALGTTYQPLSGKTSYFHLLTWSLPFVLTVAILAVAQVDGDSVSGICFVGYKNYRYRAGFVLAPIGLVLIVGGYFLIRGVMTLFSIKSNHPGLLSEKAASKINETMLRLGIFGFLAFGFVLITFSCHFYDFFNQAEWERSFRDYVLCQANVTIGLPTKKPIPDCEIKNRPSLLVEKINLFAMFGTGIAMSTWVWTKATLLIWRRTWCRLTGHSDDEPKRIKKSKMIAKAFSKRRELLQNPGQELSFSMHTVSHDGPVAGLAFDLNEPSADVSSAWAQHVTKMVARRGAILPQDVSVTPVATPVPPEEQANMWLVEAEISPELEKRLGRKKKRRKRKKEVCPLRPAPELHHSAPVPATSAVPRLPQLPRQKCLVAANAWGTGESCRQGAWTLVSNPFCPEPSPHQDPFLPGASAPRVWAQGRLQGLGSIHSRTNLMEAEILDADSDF

Daoy [27] = test: Antitumor activity against human Daoy cells assessed as inhibition of cell proliferation incubated for 72 hrs by CellTiter-Glo luminescent assay; format: functional, cell-based
D283 Med [28] = test: Antitumor activity against human D283 Med cells assessed as inhibition of cell proliferation incubated for 72 hrs by CellTiter-Glo luminescent assay; format: functional, cell-based
[29] = Cytotoxicity against human D384 Med cells assessed as reduction in cell viability incubated for 48 hrs by Cell TiterGlo luminescent assay; format: functional, cell-based; details: pooled result: one value given for 10 cell lines, strains, targets or settings
[30] = Antiproliferative activity against human Medulloblastoma cells expressing MYC and wild type Gfi1 assessed as reduction in cell viability incubated for 48 hrs by Cell TiterGlo luminescent assay; format: functional, cell-based

Structure (SMILES): Cc1[nH]c2ccccc2c1CCNCc1ccc(/C=C/C(=O)NO)cc1 [PANOBINOSTAT]
IC50 [1]: 54 nM
IC50 [2]: 67 nM
IC50 [3]: 46 nM

Structure (SMILES): COc1cc2c3c(c4ccc(OC(=O)C(C)(C)C)cc4c2cc1OC)C[C@@H]1CCCN1C3
Cmax [4]: 37.76 ng/mL

Structure (SMILES): Cc1cc(/C=C/c2ccc3cc(N(C)C)ccc3[n+]2C)c(C)n1-c1ccccc1
IC50 [8]: 10 nM
Kd [9]: 1 nM
IC50 [10]: 10 nM

Structure (SMILES): COc1cc2c3c(c4ccc(O)cc4c2cc1OC)C[C@@H]1CCCN1C3
IC50 (Daoy [17]): 0.013 nM

Structure (SMILES): O=[As][As+](=O)[O-] (stereo not given) [ARSENIC TRIOXIDE]
IC50 (Daoy [20]): 400 nM
IC50 [21]: 400 nM

Structure (SMILES): CCN1CCN(Cc2ccc(-c3cc4c(N[C@H](C)c5ccccc5)ncnc4[nH]3)cc2)CC1 [AEE-788]
IC50 (Daoy [22]): 1700 nM
IC50 (D283 Med [23]): 3800 nM

Structure (SMILES): Cc1c(Cl)cccc1Nc1ccccc1C(=O)O [TOLFENAMIC ACID]
IC50 (Daoy [27]): 21.6 µg/mL (≈ 82.5 µM)
IC50 (D283 Med [28]): 20.8 µg/mL (≈ 79.5 µM)

Structure (SMILES): Nc1cc(C(F)(F)F)c(-c2cc(N3CCOCC3)nc(N3CCOCC3)n2)cn1 [BUPARLISIB]
IC50 [29]: 279 nM

Structure (SMILES): c1ccc([C@@H]2C[C@H]2NC2CCNCC2)cc1
IC50 [30]: 0.05 nM

Now from value to compound, other results behind:

IC50 (Protein smoothened [5]): 79 nM
IC50 [6]: 4.4 nM
Structure (SMILES): CCc1cc2c(c(OCC(F)(F)F)c(C(=O)NC3CCN(C(=O)CO)CC3)n2C)c(=O)n1CC(=O)c1ccccc1 [TAK-441]

IC50 [7]: 60 nM
Structure (SMILES): C[C@H](CO)N1C[C@H](C)[C@H](CN(C)S(=O)(=O)c2ccc(Cl)cc2Cl)Oc2c(NC(=O)C3CC3)cccc2C1=O

IC50 (Protein smoothened [11]): 96 nM
Kp [12]: 0.69
Structure (SMILES): Cc1c(Cc2ccccc2)nnc(N2CCN(c3cnc(C(C)(C)O)cn3)[C@H](C)C2)c1C [LEQ506]

IC50 [15]: 374 nM
Structure (SMILES): Cc1cn(-c2cc(NC(=O)c3ccc(C)c(Nc4nccc(-c5cccnc5)n4)c3)cc(C(F)(F)F)c2)cn1 [NILOTINIB]
IC50 (Daoy [13]): 6000 nM
IC50 [14]: 5000 nM

IC50 [16]: 7.5 nM
Structure (SMILES): Cc1cnc(-c2cc(N3CCc4nc(N5CCC(O)CC5)ncc4C3)ccc2Cl)c(C)c1

IC50 (Protein smoothened [18]): 5.8 nM
IC50 [19]: 2.7 nM
Structure (SMILES): Cc1cnc(-c2cc(N3CCN(C(=O)CCS(C)(=O)=O)CC3)ncc2Cl)c(C)c1

half-life [24]: 22 h
IC50 (Protein smoothened [25]): 8 nM
IC50 (Protein smoothened [26]): 27 nM
Structure (SMILES): C[C@@H]1CN(c2ccc(C(=O)Nc3ccc(Cl)c(NC(=O)c4cccc(Cl)c4)c3)cn2)C[C@H](C)N1
